The text below walks through data of patent US20080312261A1, “4- (4-Bromo-2-Fluoroanilino) -6- Methoxy-7- (1-Methylpiperidin-4-Ylmethoxy) Quinazoline Monohydrate” (priority 2005, published 2008).

Series [1] concerns human umbilical vein endothelial cells (HUVEC). As to conditions: as disclosed in WO 01/32651, cited from earlier work.
The test system of a further series is CaLu-6 tumour xenografts. As to conditions: 50 mg/kg, orally once daily; CaLu-6 xenografts in mice; p<0.001 (Mann-Whitney Rank Sum Test); cited from earlier work.
Series [2] relates to femoral epiphyseal growth plates. As to conditions: 100 mg/kg/day in female rats, 14 days oral; p<0.001 (one-tailed Students' t-test); cited from earlier work.
Series [3] in a line: Dynamic Vapour Sorption (DVS) analysis. The format is physicochemical. The note with it: for kinetic stability: on the DVS timescale. On the procedure: Analytical Instrument: Surface Measurements Systems Dynamic Vapour Sorption Analyser, calibrated with a saturated salt solution, such as sodium chloride.
About 5 mg of material contained in a quartz holder at a specified temperature was subjected to humidified nitrogen at a flow rate of 200 ml/minute of nitrogen at the following relative humidities (RH): 0, 20, 40, 60, 80, 95, 80, 60, 40, 20, 0% RH in duplicate.
The weight of the material at a particular relative humidity was constantly monitored using an in-situ balance until it was stable according to a weight criteria of 0.002% weight change per minute averaged over 10 minutes. If the weight was still changing then it stayed at a particular relative humidity until the weight was stable (up to a maximum time of 12 hours).

Like-named read-outs stand apart in the source and are kept apart here.

One may read the IC50 as the concentration needed to halve the response being measured. On to `COc1cc2c(Nc3ccc(Br)cc3F)ncnc2cc1OCC1CCN(C)CC1` [ZD6474, 4-(4-bromo-2-fluoroanilino)-6-methoxy-7-(1-methylpiperidin-4-ylmethoxy)quinazoline], for which the IC50 in series [1] (EGF-stimulated HUVEC proliferation, read-out: EGF IC50) was 170 nM; in series [1] (VEGF-stimulated HUVEC proliferation, read-out: VEGF IC50) it was 60 nM; in series [1] (basal HUVEC proliferation, read-out: Basal IC50) it was above 3000 nM. In the series on CaLu-6 tumour xenografts, the “inhibition of tumour growth” value was 78%. The “increase in epiphyseal growth plate hypertrophy” value in series [2] is listed as 75%.
For `COc1cc2c(Nc3ccc(Br)cc3F)ncnc2cc1OCC1CCN(C)CC1` [ZD6474 monohydrate, 4-(4-bromo-2-fluoroanilino)-6-methoxy-7-(1-methylpiperidin-4-ylmethoxy)quinazoline], the “rate of weight loss on storage” value in series [3] (0% relative humidity at 25° C., once surface moisture has been removed) is recorded as “extremely slow”; in series [3] (0% relative humidity at 40° C.), “surprisingly slow”. The “hygroscopicity by DVS” value in series [3] (25° C.) is “non-hygroscopic”. The “conversion to the anhydrous form of ZD6474 during drying” value in series [3] (25° C. and 0% relative humidity) is “less than 5%”. The kinetic stability result in series [3] was “kinetically stable”.
Consider `COc1cc2c(Nc3ccc(Br)cc3F)ncnc2cc1OCC1CCN(C)CC1` [ZD6474 anhydrous, 4-(4-bromo-2-fluoroanilino)-6-methoxy-7-(1-methylpiperidin-4-ylmethoxy)quinazoline], for which the “hygroscopicity by DVS” value in series [3] (25° C.) is listed as “non-hygroscopic”. Also, in series [3] (at 95% relative humidity, 25° C.), the water absorbed was 0.63 % weight/weight. Besides, the kinetic stability result in series [3] is given as “kinetically stable”.
